# From patent EP4534088A1, “ARFOLITIXORIN FOR USE IN VITAMIN B6-ENHANCED, 5-FLUOROURACIL-BASED CHEMOTHERAPY OF CARCINOMAS” (priority 2023, dated 2025)
# Experiments:
# [1] = molecular target: T1, thymidylate synthase (Homo sapiens, UniProt P04818); assay: Modelle-001 Phase II clinical trial: TS inhibition in colorectal liver metastases (LC-MS/MS); format: in vivo; conditions: iv, i.v. bolus, with 500 mg/m2 5-FU, mean
# T1 construct: from tissue; host or cells: colorectal liver metastasis tissue from human patients
# T1 sequence (P04818 2-313 limits assumed): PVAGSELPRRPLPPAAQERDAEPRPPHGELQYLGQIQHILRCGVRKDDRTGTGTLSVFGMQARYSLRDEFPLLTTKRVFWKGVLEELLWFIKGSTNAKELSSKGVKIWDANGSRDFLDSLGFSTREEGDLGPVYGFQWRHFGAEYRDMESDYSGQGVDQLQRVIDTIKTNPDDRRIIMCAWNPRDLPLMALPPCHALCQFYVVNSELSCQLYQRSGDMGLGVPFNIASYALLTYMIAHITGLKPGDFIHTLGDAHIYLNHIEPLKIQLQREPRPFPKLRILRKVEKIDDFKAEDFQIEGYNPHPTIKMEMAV
# Excerpt: The difference in a clinical setting in human patients between leucovorin and arfolitixorin has been analyzed by Taflin et al. in the Modelle 001 Phase 2 clinical study (TS-inhibition in Colorectal Liver Metastases Comparing Arfolitixorin and Calciumfolinate), the primary objective of which is to compare the TS-inhibtion capacity of the combination Arfolitixorin/5-FU in contrast to Calciumfolinate/5-FU in tumour, adjacent liver parenchyma and plasma in patients with liver metastases from colorectal cancer (Study Details | Modelle 001, TS-inhibition in Colorectal Liver Metastases Comparing Arfolitixorin and Calciumfolinate | ClinicalTrials.gov) (Taflin 2023).
# (§1) The effectiveness of arfolitixorin vs. leucovorin in Thymidylate Synthase inhibition and in achieving high levels of [6R] 5,10-methylenetetrahydrofolate in metastatic tissue was investigated in the Modelle-001 Phase II clinical trial named "A Single-blinded, Randomized Phase II study investigating the effects of two doses of Arfolitixorin compared to Calcium folinate together with 5-fluorouracil on thymidylate synthase in tumour and adjacent hepatic tissue for patients with liver metastases from colorectal cancer". Link: Study Details I Modelle 001, TS-inhibition in Colorectal Liver Metastases Comparing Arfolitixorin and Calciumfolinate I Clinical-Trials.gov.
# (§2) Aim: The Modelle-001 trial was designed to explore how a single intravenous bolus injection of Arfo as compared to LV in the form of calcium folinate, together with 5-FU affects the inhibition of TS and, further, to investigate how different forms and doses of folates affect folate concentration and polyglutamation in metastatic liver tissue.
# Patients and Methods: Thirty adult patients with biopsy-verified colorectal cancer and liver metastases indicated for surgical removal were included at two Swedish University Hospitals. Both synchronous and metachronous liver metastases were accepted and most patients had received preoperative chemotherapy. […] Folate levels and TS inhibition were determined by LC-MS/MS.
# [2] = cited from earlier work
# [3] = cited from earlier work; remark: listed apart in the source
# [4] = Modelle-001 Phase II clinical trial: folate concentration and polyglutamation in metastatic liver tissue (LC-MS/MS); format: in vivo, human; conditions: compared to LV60; for ratio of poly/monoglutamated folates: after 5-FU administration
# Excerpt: as §1, §2
# Patients and Methods: Thirty adult patients with biopsy-verified colorectal cancer and liver metastases indicated for surgical removal were included at two Swedish University Hospitals. Both synchronous and metachronous liver metastases were accepted and most patients had received preoperative chemotherapy. The first six patients received a reduced 5-FU dosage (250 mg/m2), and an independent safety committee gave permission to escalate to full dosage. Twenty-four patients were randomized to receive 500 mg/m2 5-FU either in combination with 60 mg/m2 LV (LV60, n = 12), 30 mg/m2 Arfo (A30, n = 6) or 120 mg/m2 Arfo (A120, n = 6) as a bolus regimen (a slow i.v. injection for three minutes). Metastatic tissue was collected 60 minutes after folate administration, then 5-FU was given. After a 60-minute break, metastatic tissue was again collected. Folate levels and TS inhibition were determined by LC-MS/MS.
# [5] = tested on: solid tumors; assay: Phase I/IIa study ISO-CC-005: tumour response to arfolitixorin doublet regimens (ARFIRI/ARFOX); format: in vivo, human; conditions: 120 mg/m^2 arfolitixorin and 5-FU with either irinotecan or oxaliplatin (ARFIRI/ARFOX)
# Description: Arfolitixorin has been in development for a number of years and has been studied in several clinical studies.
# The completion of the study was announced in January 2020. In total, 105 patients were included in the study. […] These patients had been treated with the "doublet" regimens comprising 120 mg/m^2 arfolitixorin and 5-fluorouracil (5-FU) with either irinotecan or oxaliplatin (ARFIRI/ARFOX). Out of the 31 patients, 17 were treated with an ARFOX regimen.
# [6] = [6R]-MTHF levels after arfolitixorin versus comparable leucovorin treatment; format: in vivo; conditions: fold higher than leucovorin
# Excerpt: Leucovorin and I-leucovorin, both currently approved for treatment of gastrointestinal and other cancers, need to be metabolically activated to [6R]-MTHF to potentiate the effect of 5-FU. This dependency on cellular activation provides a hurdle for reaching sufficient levels of the active [6R]-MTHF. […] Secondly, the enzymatic activation is genetically regulated^16,18, and is therefore associated with variability between individuals and conditions. Arfolitoxirin is believed to be efficacious in a larger proportion of patients with less inter- and intra-individual variability. These differences may potentially turn out to be of significant importance for increased clinical efficacy in 5-FU based cancer treatment.
# [7] = tested on: advanced metastatic colorectal adenocarcinoma; conditions: FOLFIRINOX (± cetuximab) supplemented with pyridoxine in high doses, cited from earlier work
structure (smiles),measurement,setting,value
"Nc1nc2c(c(=O)[nH]1)N(C=O)C(CNc1ccc(C(=O)N[C@@H](CCC(=O)O)C(=O)O)cc1)CN2 (stereo partly shown) [Leucovorin, 5-formyl tetrahydrofolic acid, reference compound]",inhibition at 60 mg/m2,[1]; 60 mg/m2 Leucovorin (LV60),25.4%
Cc1ncc(CO)c(CO)c1O.Cl [Pyridoxine hydrochloride],volume of water in which one gram dissolves,[2],5 mL
same,stability in air,[3]; air,stable in air
same,stability to sunlight,[3]; sunlight,slowly affected by sunlight
"Nc1nc2c(c(=O)[nH]1)N1CN(c3ccc(C(=O)N[C@@H](CCC(=O)O)C(=O)O)cc3)C[C@H]1CN2 [arfolitixorin, [6R]-5,10-methylenetetrahydrofolate]",inhibition at 30 mg/m2,[1]; 30 mg/m2 arfolitixorin (A30),54.2%
same,inhibition at 120 mg/m2,[1]; 120 mg/m2 arfolitixorin (A120),83.8%
same,ratio of poly/monoglutamated folates,"[4]; 30 mg/m2 (A30), p = 0.045",higher
same,"5,10-methylenetetrahydrofolate (CH2THF) concentrations in metastases","[4]; 30 mg/m2 (A30), after 5-FU treatment, p = 0.031",higher
same,"5,10-methylenetetrahydrofolate (CH2THF) concentrations in metastases","[4]; 30 mg/m2 (A30), before 5-FU treatment, p = 0.037",higher
same,ratio of poly/monoglutamated folates,"[4]; 120 mg/m2 (A120), p = 0.0049",higher
same,"5,10-methylenetetrahydrofolate (CH2THF) concentrations in metastases","[4]; 120 mg/m2 (A120), after 5-FU treatment, p = 0.0023",higher
same,"5,10-methylenetetrahydrofolate (CH2THF) concentrations in metastases","[4]; 120 mg/m2 (A120), before 5-FU treatment, p = 0.0003",higher
same,best overall response rate (ORR),[5],55%
same,[6R]-MTHF levels relative to comparable treatment with leucovorin,[6],3-4 times
Cc1ncc(CO)c(CO)c1O [pyridoxine],toxicity associated with the pyridoxine-modified protocols,[7],of the same magnitude as expected for the standard protocols
same,Antitumor activity,"[7]; five patients, no controls",high for several patients
